Measurements taken from ChEMBL document CHEMBL1641410, “In silico discovery of acylated flavonol monorhamnosides from Eriobotrya japonica as natural, small-molecular weight inhibitors of XIAP BIR3” (Bioorg Med Chem, 2011).

Assays:
[1] = molecular target: E3 ubiquitin-protein ligase XIAP (Homo sapiens, UniProt P98170); experiment: Displacement of fluorescent SM5F peptide from XIAP linker BIR3 domain after 3 hrs by fluorescence polarization assay
[2] = Chemical stability of the compound after 15 hrs; format: physicochemical

Chain of E3 ubiquitin-protein ligase XIAP (P98170 whole entry, the tested form may be a part): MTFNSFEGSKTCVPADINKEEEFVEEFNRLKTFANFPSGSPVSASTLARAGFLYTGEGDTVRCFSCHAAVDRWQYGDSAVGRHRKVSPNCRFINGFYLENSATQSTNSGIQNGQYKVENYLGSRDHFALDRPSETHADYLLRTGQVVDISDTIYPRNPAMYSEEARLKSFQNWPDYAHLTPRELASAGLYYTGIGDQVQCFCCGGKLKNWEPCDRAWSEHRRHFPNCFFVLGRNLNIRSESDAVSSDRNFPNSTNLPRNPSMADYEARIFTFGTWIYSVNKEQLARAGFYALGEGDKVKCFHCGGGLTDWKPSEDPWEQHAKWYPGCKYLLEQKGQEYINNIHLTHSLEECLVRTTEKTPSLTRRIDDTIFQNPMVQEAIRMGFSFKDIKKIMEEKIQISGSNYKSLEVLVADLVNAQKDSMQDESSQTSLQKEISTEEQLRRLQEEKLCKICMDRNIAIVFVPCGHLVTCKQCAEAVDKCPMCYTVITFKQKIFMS

IC50 [1]	Stability [2]	SMILES
> 100 µM	–	O=c1c(O)c(-c2ccc(O)cc2)oc2cc(O)cc(O)c12 [KAEMPFEROL]
> 10.4 µM	Stable	C[C@@H]1O[C@@H](Oc2c(-c3ccc(O)cc3)oc3cc(O)cc(O)c3c2=O)[C@H](OC(=O)/C=C/c2ccc(O)cc2)[C@H](O)[C@H]1OC(=O)/C=C/c1ccc(O)cc1
